A melting point compilation (Tetko et al.; mined from patent text by program, amines drawn as free bases though some values may be those of a salt)
Residues, ends and D or L forms follow the SMILES beside them. *: point of attachment. OiPr = CC(C)O*

Row | melting point [°C] | SMILES
1 | 95 | CC1(O)CSC(=S)N1c1ccc(Cl)cn1 (stereo not given)
2 | 45 to 46 | CCOC(=O)COc1ccc([N+](=O)[O-])cc1C(F)(F)F
3 | 104 to 107 | COC(=O)c1ccc(CNc2ccc3c(c2)C(C)(C)CCC3(C)C)cc1
4 | 212 to 215 | O[C@H]1CC[C@H](n2cnc(-c3ccc(F)cc3)c2-c2ccnc(Oc3ccccc3)n2)CC1
5 | 124 to 125 | N#CCCS(=O)(=O)c1ccc(S(=O)(=O)Cl)cc1
6 | 105 to 107 | CC1(C)c2cc(C#N)ccc2OC1N1CCOCC1 (stereo not given)
7 | 210 to 211 | Cc1oc(-c2ccccc2)nc1COc1nn(Cc2ccc(Oc3ccccc3)cc2)cc1/C=C/C(=O)O
8 | 234 to 235 | O=C1NCc2c(-c3ccccc3)cccc2N1c1ccccc1
9 | 207 to 208 | CN(c1cc(OCCCS(C)(=O)=O)cc2cc(C(=O)O)[nH]c12)S(=O)(=O)c1ccccn1
10 | 84.5 to 85.5 | CC(C=CC=C(C)CCCC(C)CCCC(C)C)=CC(=O)O (stereo not given)
11 | 279 to 280 | Cc1ccc(-c2ccccc2)c(O)c1-c1ccccc1
12 | 141 to 142 | CC[C@H](COC)n1cc(Cl)nc(N2CCc3cc(OC)cc(C#N)c32)c1=O
13 | 75 to 77 | O=C(Nc1ccccc1)c1ccccn1
14 | 76 to 78 | Oc1ccc(C2OCCO2)cc1Br
15 | 86 to 87 | O=C(O)CCCCCOc1cccc2occc12
16 | 167 to 168 | COc1ccc(C(Sc2ccccc2N)C(O)C(=O)O)cc1 (stereo not given)
17 | 163 to 164 | CSc1ccc(-c2nnc(Oc3ccc(F)cc3F)cc2-c2ccc(Cl)cc2)cc1
18 | 94 to 95 | CCOCc1cc2ccc(OCc3ccccc3)cc2o/c1=N\c1ccccc1
19 | 84 to 86 | COC(=O)/C=C/C=C(\C)c1ccc(OC)cc1
20 | 193 to 194 | Nc1c(NC(=O)CCl)ccc2c1C(=O)c1ccccc1C2=O

Row | melting point [°C] | SMILES
21 | 119 to 121 | COC(=O)C1=Cc2cc(-c3ccc(OCCOC(C)C)cc3)ccc2N(S(C)(=O)=O)CC1
22 | 132 to 134 | Nc1cccc(NC(=S)Nc2ccc(Cl)cc2)c1
23 | 249 to 251 | O=C(Nc1ccc(C(=O)O)cc1)OCc1nccn1-c1cc2cc(C(=O)O)c(=O)[nH]c2cc1Cl
24 | 122 to 124 | CCNc1ncc(Nc2ccc(Cl)cc2)nc1-n1nc(C)cc1C
25 | 104 to 106 | CCC1c2cc(OC)c(OC)cc2C(C=Cc2ccc(N)cc2)=NN(C(C)=O)C1C (stereo not given)
26 | 127 to 129 | COC(=O)COc1ccc(OCC2CCN(c3ccncc3)CC2)cc1
27 | 189 to 191 | CN(c1cccc2cc(C3=NCC4(CCOCC4)S3)[nH]c12)S(=O)(=O)c1cccs1
28 | 212 to 214 | NC(=O)c1ccc(-c2ccc3ncn(Cc4ccc5ncccc5c4)c3n2)cc1Cl
29 | 298 to 299 | O=C(O)c1cc2c(c(C(=O)O)c1)NCCC2
30 | 58 to 59.5 | CCCc1[nH]c(C(=O)OCC)c(CC)c1C
31 | 208 to 210 | N#Cc1cc(Cl)nc(NN)c1
32 | 250 | CCCC1=C(C#N)C(c2cccc(C)c2[N+](=O)[O-])c2c[nH]nc2N1 (stereo not given)
33 | 193 to 194 | Nc1nc(Nc2ccccc2)c2ncn(C3CC(F)C(CO)O3)c2n1 (stereo not given)
34 | 230 to 233 | CC(C)OC(=O)C(CO)NC(=O)C(CC(=O)O)NC(=O)C1CCCN1 (stereo not drawn) (H-Pro-Asp-Ser-OiPr; configuration not given here)
35 | 213 to 214 | COc1cc2c(cc1OC)C(c1ccc([N+](=O)[O-])cc1)NN(C1=NC(=O)C(C)S1)C(C)C2 (stereo not given)
36 | 47 to 49 | C=CCC[Si](c1ccccc1)(c1ccccc1)C1SCCCS1
37 | 131 to 133 | CCC(CC)Nc1cc(C)nc2c1nnn2-c1c(C)cc(C)cc1C
38 | 74 | CC(C)OC(=O)c1cc(-c2nn(C)c(C(F)(F)F)c2CF)c(F)cc1Cl
39 | 90 to 92.5 | CCS(=O)(=O)Oc1ccccc1S(N)(=O)=O

Row | SMILES | melting point [°C]
40 | CCCc1c(C(=O)C(C)C)c2ccc(C(=O)O)cc2n1Cc1ccccc1OC | 190 to 191
